Tests used:
[1] = biological target: T1, Eukaryotic translation initiation factor 4E (Oryctolagus cuniculus, UniProt P29338); assay: Inhibition of eIF4E-mediated translation in flexi rabbit reticulocyte lysate using luciferase mRNA preincubated for 60 mins before mRNA addition by luminescence based luciferase assay
m7GpppX diphosphatase = biological target: T2, m7GpppX diphosphatase (Homo sapiens, UniProt Q96C86); assay: Stability of the compound assessed as human DcpS-mediated compound hydrolysis at 40 uM after 10 to 180 mins by HPLC analysis; format: ADME
T2 sequence (Q96C86 whole entry): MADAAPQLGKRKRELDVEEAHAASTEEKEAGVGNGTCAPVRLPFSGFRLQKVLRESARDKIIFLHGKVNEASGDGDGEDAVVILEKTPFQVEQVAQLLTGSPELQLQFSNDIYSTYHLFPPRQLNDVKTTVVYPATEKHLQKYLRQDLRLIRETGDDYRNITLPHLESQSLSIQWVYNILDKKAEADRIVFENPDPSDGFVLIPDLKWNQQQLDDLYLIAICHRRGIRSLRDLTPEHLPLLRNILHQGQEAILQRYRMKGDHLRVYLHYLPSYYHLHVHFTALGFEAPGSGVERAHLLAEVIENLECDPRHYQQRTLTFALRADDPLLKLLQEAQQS

[2] = biological target: Eukaryotic translation initiation factor 4E (Oryctolagus cuniculus) (UniProt P29338); assay: Inhibition of eIF4E-mediated translation in flexi rabbit reticulocyte lysate using luciferase mRNA by luminescence based luciferase assay relative to m7GpppG
[3] = biological target: Eukaryotic translation initiation factor 4E (Homo sapiens) (UniProt P06730)
Description: Binding affinity to eIF4E (unknown origin) by fluorescence quenching assay

[4] = biological target: T1, Eukaryotic translation initiation factor 4E; assay: Inhibition of eIF4E-mediated translation in flexi rabbit reticulocyte lysate using luciferase mRNA treated simultaneously with mRNA by luminescence based luciferase assay
[5] = biological target: T3, DcpS (m7GpppX diphosphatase) (Homo sapiens, UniProt Q96C86); assay: Stability of the compound assessed as human DcpS-mediated compound hydrolysis at 40 uM after 180 mins by HPLC analysis; format: ADME; conditions: human DcpS enzyme (m7GpppX diphosphatase), read-out: Drug degradation
T3 sequence (Q96C86 whole entry): T2 sequence (Q96C86 whole entry)

Serum [6] = assay: Stability of the compound in 10% fetal bovine serum at 50 uM up to 240 mins by RP-HPLC analysis; format: ADME, cell-free, Bos taurus; conditions: cattle, 4 h
Serum [7] = assay: Stability of the compound in 5% fetal bovine serum at 50 uM up to 240 mins by RP-HPLC analysis; format: ADME, cell-free, Bos taurus; conditions: cattle, 4 h
[8] = Chemical stability of the compound in phosphate buffer at pH 7 assessed as compound decomposition; format: physicochemical; conditions: read-out: Drug degradation
[9] = Chemical stability of the compound in glycine buffer at pH 2.2 after 16 hrs; format: physicochemical; conditions: pH 2.2, 16 h
[10] = Chemical stability of the compound in […] buffer at pH 8.5; format: physicochemical
[11] = Chemical stability of the compound in aqueous buffer at pH 4 to 8.5; format: physicochemical
[12] = Chemical stability of the compound in glycine buffer at pH 2.2; format: physicochemical

Sequence of Eukaryotic translation initiation factor 4E (Homo sapiens) (P06730 whole entry): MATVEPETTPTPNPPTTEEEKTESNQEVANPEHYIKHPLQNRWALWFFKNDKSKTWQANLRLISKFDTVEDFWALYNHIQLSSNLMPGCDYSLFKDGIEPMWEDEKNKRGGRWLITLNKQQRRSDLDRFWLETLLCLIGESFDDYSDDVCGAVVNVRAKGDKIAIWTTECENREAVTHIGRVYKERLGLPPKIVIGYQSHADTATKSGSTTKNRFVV
Sequence of Eukaryotic translation initiation factor 4E (Oryctolagus cuniculus) (P29338 whole entry): as the sequence (P06730 whole entry) above, with T16P, T17A, E174D counted along it
T1 sequence (P29338 whole entry): as the sequence (P06730 whole entry) above, with T16P, T17A, E174D counted along it

Row | Stability (m7GpppX diphosphatase) | Ratio [2] | Ka [3] | SMILES | IC50 [1] | other results
1 | Stable |  |  | C[n+]1cn([C@@H]2O[C@H](COP(=O)(O)OP(=O)([O-])OP(=O)(O)OC[C@H]3O[C@@H](n4cnc5c(=O)[nH]c(N)nc54)[C@H](O)[C@@H]3O)[C@@H](O)[C@H]2O)c2nc(N)[nH]c(=O)c21 | 25000 nM | 
2 |  | 0.99 |  | B[P@@](=O)(OC[C@H]1O[C@@H](n2c[n+](C)c3c(O)nc(N)nc32)[C@H](O)[C@@H]1O)OP(=O)([O-])CP(=O)([O-])O[P@](B)(=O)OC[C@H]1O[C@@H](n2c[n+](C)c3c(O)nc(N)nc32)[C@H](O)[C@@H]1O |  | 
3 |  | 2.66 |  | C[n+]1cn([C@@H]2O[C@H](COP(=O)(O)OP(=O)(O)OP(=O)(O)OC[C@H]3O[C@@H](n4c[n+](C)c5c([O-])nc(N)nc54)[C@H](O)[C@@H]3O)[C@@H](O)[C@H]2O)c2nc(N)nc([O-])c21 |  | 
4 |  | 1.12 |  | C[n+]1cn([C@@H]2O[C@H](CO[P@@](=O)(S)OP(=O)([O-])CP(=O)([O-])O[P@](=O)(S)OC[C@H]3O[C@@H](n4c[n+](C)c5c(O)nc(N)nc54)[C@H](O)[C@@H]3O)[C@@H](O)[C@H]2O)c2nc(N)nc(O)c21 |  | 
5 |  |  | 9.4 µM⁻¹ | C[n+]1cn([C@@H]2O[C@H](COP(=O)(O)OP(=O)([O-])OP(=O)(O)OC[C@H]3O[C@@H](n4cnc5c(=O)[nH]c(N)nc54)[C@H](O)[C@@H]3O)[C@@H](O)[C@H]2O)c2nc(N)nc(O)c21 |  | 
6 |  | 1.86 |  | C[n+]1cn([C@@H]2O[C@H](CO[P@](=O)(S)OP(=O)([O-])CP(=O)([O-])O[P@@](=O)(S)OC[C@H]3O[C@@H](n4c[n+](C)c5c(O)nc(N)nc54)[C@H](O)[C@@H]3O)[C@@H](O)[C@H]2O)c2nc(N)nc(O)c21 |  | 
7 |  | 0.85 |  | B[P@](=O)(OC[C@H]1O[C@@H](n2c[n+](C)c3c(O)nc(N)nc32)[C@H](O)[C@@H]1O)OP(=O)([O-])CP(=O)([O-])O[P@@](B)(=O)OC[C@H]1O[C@@H](n2c[n+](C)c3c(O)nc(N)nc32)[C@H](O)[C@@H]1O |  | 
8 |  | 1.56 |  | C[n+]1cn([C@@H]2O[C@H](CO[P@](=O)(S)OP(=O)([O-])CP(=O)([O-])O[P@](=O)(S)OC[C@H]3O[C@@H](n4c[n+](C)c5c(O)nc(N)nc54)[C@H](O)[C@@H]3O)[C@@H](O)[C@H]2O)c2nc(N)nc(O)c21 |  | 
9 |  | 3.14 |  | C[n+]1cn([C@@H]2O[C@H](COP(=O)(O)OP(=O)(O)OP(=O)(O)OP(=O)(O)OC[C@H]3O[C@@H](n4c[n+](C)c5c([O-])nc(N)nc54)[C@H](O)[C@@H]3O)[C@@H](O)[C@H]2O)c2nc(N)nc([O-])c21 |  | 
10 |  | 1.5 |  | CO[C@H]1[C@@H](O)[C@H](n2c[n+](C)c3c(O)nc(N)nc32)O[C@@H]1COP(=O)(O)OP(=O)([O-])OP(=O)(O)OC[C@H]1O[C@@H](n2cnc3c(=O)[nH]c(N)nc32)[C@H](O)[C@@H]1O |  | 
11 | Unstable |  | 148 µM⁻¹ | B[P@@](=O)(OC[C@H]1O[C@@H](n2c[n+](C)c3c(O)nc(N)nc32)[C@H](O)[C@@H]1O)OP(=O)([O-])OP(=O)(O)O.N.N.N.N | 1280 nM | IC50 [4]: 1190 nM; metabolised at 3 h, 40 µM [5]: 19%
12 | Unstable |  | 136 µM⁻¹ | B[P@](=O)(OC[C@H]1O[C@@H](n2c[n+](C)c3c(O)nc(N)nc32)[C@H](O)[C@@H]1O)OP(=O)([O-])OP(=O)(O)O.N.N.N.N | 3260 nM | IC50 [4]: 4120 nM
13 |  | 1.18 |  | B[P@](=O)(OC[C@H]1O[C@@H](n2c[n+](C)c3c(O)nc(N)nc32)[C@H](O)[C@@H]1O)OP(=O)([O-])CP(=O)([O-])O[P@](B)(=O)OC[C@H]1O[C@@H](n2c[n+](C)c3c(O)nc(N)nc32)[C@H](O)[C@@H]1O |  | 

The remaining lines, values behind:

Row | SMILES | Stability (m7GpppX diphosphatase) | Ratio [2] | Ka [3] | IC50 [1] | other results
14 | B[P@](=O)(OC[C@H]1O[C@@H](n2c[n+](C)c3c(O)nc(N)nc32)[C@H](O)[C@@H]1O)OP(=O)([O-])CP(=O)(O)O.N.N.N.N | Unstable |  | 18.5 µM⁻¹ | 3220 nM | IC50 [4]: 4470 nM
15 | B[P@@](=O)(OC[C@H]1O[C@@H](n2c[n+](C)c3c(O)nc(N)nc32)[C@H](O)[C@@H]1O)OP(=O)([O-])OP(=O)([O-])O[P@](B)(=O)OC[C@H]1O[C@@H](n2c[n+](C)c3c(O)nc(N)nc32)[C@H](O)[C@@H]1O |  |  |  |  | metabolised at 3 h, 40 µM [5]: 81%
16 | C[n+]1cn([C@@H]2O[C@H](CO[P@](=O)(S)OP(=O)([O-])CP(=O)(O)O)[C@@H](O)[C@H]2O)c2nc(N)nc(O)c21.N.N.N.N | Unstable |  | 85.9 µM⁻¹ | 1240 nM | IC50 [4]: 1490 nM; Stability (Serum [6]): Stable; Stability (Serum [7]): Stable
17 | [BH3-]P(=O)(OC[C@H]1O[C@@H](n2c[n+](C)c3c(O)nc(N)nc32)[C@H](O)[C@@H]1O)OP(=O)(O)NP(=O)(O)O (stereo not given in full) |  |  |  |  | degraded [8]: > 50%; Stability [9]: Unstable; Stability [10]: Unstable
18 | C[n+]1cn([C@@H]2O[C@H](CO[P@@](=O)(S)OP(=O)([O-])OP(=O)(O)O)[C@@H](O)[C@H]2O)c2nc(N)nc(O)c21.N.N.N.N | Unstable |  | 190 µM⁻¹ | 1300 nM | IC50 [4]: 1440 nM; Stability (Serum [6]): Stable; Stability (Serum [7]): Stable
19 | C[n+]1cn([C@@H]2O[C@H](COP(=O)(O)OP(=O)(O)NP(=O)(O)O)[C@@H](O)[C@H]2O)c2nc(N)nc([O-])c21 |  |  |  |  | Stability [9]: Unstable; Stability [10]: Unstable
20 | [BH3-]P(=O)(OC[C@H]1O[C@@H](n2c[n+](C)c3c(O)nc(N)nc32)[C@H](O)[C@@H]1O)OP(=O)(O)CP(=O)(O)O (stereo not given in full) |  |  |  |  | Stability [11]: Stable; Stability [12]: Unstable
21 | B[P@@](=O)(OC[C@H]1O[C@@H](n2c[n+](C)c3c(O)nc(N)nc32)[C@H](O)[C@@H]1O)OP(=O)([O-])CP(=O)(O)O.N.N.N.N | Unstable |  | 36.1 µM⁻¹ | 3260 nM | IC50 [4]: 2550 nM
22 | C[n+]1cn([C@@H]2O[C@H](CO[P@@](=O)(S)OP(=O)([O-])CP(=O)(O)O)[C@@H](O)[C@H]2O)c2nc(N)nc(O)c21.N.N.N.N | Unstable |  | 41.8 µM⁻¹ | 2610 nM | IC50 [4]: 3680 nM; Stability (Serum [6]): Unstable; Stability (Serum [7]): Unstable
23 | C[n+]1cn([C@@H]2O[C@H](COP(=O)(O)OP(=O)(O)CP(=O)(O)O)[C@@H](O)[C@H]2O)c2nc(N)nc([O-])c21 |  |  | 19.5 µM⁻¹ |  | 
24 | C[n+]1cn([C@@H]2O[C@H](CO[P@](=O)(S)OP(=O)([O-])OP(=O)(O)O)[C@@H](O)[C@H]2O)c2nc(N)nc(O)c21.N.N.N.N | Unstable |  | 371 µM⁻¹ |  | Stability (Serum [6]): Stable; Stability (Serum [7]): Stable
25 | [BH3-]P(=O)(OC[C@H]1O[C@@H](n2c[n+](C)c3c(O)nc(N)nc32)[C@H](O)[C@@H]1O)OP(=O)(O)OP(=O)(O)O (stereo not given in full) |  |  |  |  | Stability [11]: Stable; Stability [12]: Unstable
26 | C[n+]1cn([C@@H]2O[C@H](COP(=O)([O-])OP(=O)(O)OP(=O)(O)O)[C@@H](O)[C@H]2O)c2nc(N)[nH]c(=O)c21 | Stable |  |  |  | Stability (Serum [6]): Unstable; Stability (Serum [7]): Unstable

— ChEMBL document CHEMBL3603763, “Phosphate-modified analogues of m(7)GTP and m(7)Gppppm(7)G-Synthesis and biochemical properties” (Bioorg Med Chem, 2015)
